{
  "source": "patent US20050214353A1",
  "about": "“Transdermal therapeutic system” (priority 2001, published 2005)",
  "origin": "cited, not measured here",
  "data": [
    {"smiles": "CCN(CC)C(=O)N[C@H]1C=C2c3cccc4[nH]cc(c34)C[C@H]2N(C)C1", "note": "[lisuride, 3-(9,10-didehydro-6-methyl-8α-ergolinyl)-1,1-diethyl urea]", "values": [
      {"measurement": "half-life in the blood", "value": "ca. 2 hrs"}
    ]}
  ]
}
